Source: PubChem BioAssay AID1259407 (Chemical Carcinogenesis Research Information System (CCRIS), 2018)
Activity calls are given as the source filed them. The rule behind the calls is not given here.

System: CCRIS mutagenicity, Ames/micronucleus/aberration tests
Assay: CCRIS mutagenicity studies
[1] = Test System: AMES SALMONELLA TYPHIMURIUM, Strain/Indicator: TA97, Metabolic Activation: HAMSTER, LIVER, S-9, AROCLOR 1254 (10 OR 30%), Method: PREINCUBATION
[2] = Test System: AMES SALMONELLA TYPHIMURIUM, Strain/Indicator: TA97, Metabolic Activation: NONE, Method: PREINCUBATION
[3] = Test System: AMES SALMONELLA TYPHIMURIUM, Strain/Indicator: TA97, Metabolic Activation: RAT, LIVER, S-9, AROCLOR 1254 (10 OR 30%), Method: PREINCUBATION
[4] = Test System: AMES SALMONELLA TYPHIMURIUM, Strain/Indicator: TA98, Metabolic Activation: NONE, Method: PREINCUBATION
[5] = Test System: AMES SALMONELLA TYPHIMURIUM, Strain/Indicator: TA98, Metabolic Activation: RAT, LIVER, S-9, AROCLOR 1254 (10%), Method: PREINCUBATION
[6] = Test System: AMES SALMONELLA TYPHIMURIUM, Strain/Indicator: TA100, Metabolic Activation: NONE, Method: PREINCUBATION
[7] = Test System: AMES SALMONELLA TYPHIMURIUM, Strain/Indicator: TA100, Metabolic Activation: RAT, LIVER, S-9, AROCLOR 1254 (10%), Method: PREINCUBATION
[8] = Test System: AMES SALMONELLA TYPHIMURIUM, Strain/Indicator: TA1535, Metabolic Activation: HAMSTER, LIVER, S-9, AROCLOR 1254 (10 OR 30%), Method: PREINCUBATION
[9] = Test System: AMES SALMONELLA TYPHIMURIUM, Strain/Indicator: TA1535, Metabolic Activation: NONE, Method: PREINCUBATION
[10] = Test System: AMES SALMONELLA TYPHIMURIUM, Strain/Indicator: TA1535, Metabolic Activation: RAT, LIVER, S-9, AROCLOR 1254 (10 OR 30%), Method: PREINCUBATION

CC(=O)Nc1ccc(Cc2ccc(NC(C)=O)cc2)cc1
mutagenic call (Test System: AMES SALMONELLA TYPHIMURIUM, Strain/Indicator: TA98, Metabolic Activation: NONE, Method: STANDARD PLATE): inactive; negative | mutagenic call (Test System: AMES SALMONELLA TYPHIMURIUM, Strain/Indicator: TA98, Metabolic Activation: RAT, LIVER, S-9, PCB, Method: STANDARD PLATE): inactive; negative | mutagenic call (Test System: AMES SALMONELLA TYPHIMURIUM, Strain/Indicator: TA100, Metabolic Activation: NONE, Method: STANDARD PLATE): inactive; negative | mutagenic call (Test System: AMES SALMONELLA TYPHIMURIUM, Strain/Indicator: TA100, Metabolic Activation: RAT, LIVER, S-9, PCB, Method: STANDARD PLATE): inactive; negative

Cc1ccc2nc3ccccc3c(N)c2c1
mutagenic call (Test System: AMES SALMONELLA TYPHIMURIUM, Strain/Indicator: TA1537, Metabolic Activation: NONE, Method: PREINCUBATION): active; positive

CC(C)C(C)C
mutagenic call [1]: inactive; negative | mutagenic call [2]: inactive; negative | mutagenic call [3]: inactive; negative | mutagenic call (Test System: AMES SALMONELLA TYPHIMURIUM, Strain/Indicator: TA98, Metabolic Activation: HAMSTER, LIVER, S-9, AROCLOR 1254 (10%), Method: PREINCUBATION): inactive; negative | mutagenic call (Test System: AMES SALMONELLA TYPHIMURIUM, Strain/Indicator: TA98, Metabolic Activation: HAMSTER, LIVER, S-9, AROCLOR 1254 (30%), Method: DESICCATOR): inactive; negative | mutagenic call (Test System: AMES SALMONELLA TYPHIMURIUM, Strain/Indicator: TA98, Metabolic Activation: HAMSTER, LIVER, S-9, AROCLOR 1254 (30%), Method: PREINCUBATION): inactive; negative | mutagenic call (Test System: AMES SALMONELLA TYPHIMURIUM, Strain/Indicator: TA98, Metabolic Activation: NONE, Method: DESICCATOR): inactive; negative | mutagenic call [4]: inactive; negative | mutagenic call [5]: inactive; negative | mutagenic call (Test System: AMES SALMONELLA TYPHIMURIUM, Strain/Indicator: TA98, Metabolic Activation: RAT, LIVER, S-9, AROCLOR 1254 (30%), Method: DESICCATOR): inactive; negative | mutagenic call (Test System: AMES SALMONELLA TYPHIMURIUM, Strain/Indicator: TA98, Metabolic Activation: RAT, LIVER, S-9, AROCLOR 1254 (30%), Method: PREINCUBATION): inactive; negative | mutagenic call (Test System: AMES SALMONELLA TYPHIMURIUM, Strain/Indicator: TA100, Metabolic Activation: HAMSTER, LIVER, S-9, AROCLOR 1254 (10%), Method: PREINCUBATION): inactive; negative | mutagenic call (Test System: AMES SALMONELLA TYPHIMURIUM, Strain/Indicator: TA100, Metabolic Activation: HAMSTER, LIVER, S-9, AROCLOR 1254 (30%), Method: DESICCATOR): inactive; negative | mutagenic call (Test System: AMES SALMONELLA TYPHIMURIUM, Strain/Indicator: TA100, Metabolic Activation: HAMSTER, LIVER, S-9, AROCLOR 1254 (30%), Method: PREINCUBATION): inactive; negative | mutagenic call (Test System: AMES SALMONELLA TYPHIMURIUM, Strain/Indicator: TA100, Metabolic Activation: NONE, Method: DESICCATOR): inactive; negative | mutagenic call [6]: inactive; negative | mutagenic call [7]: inactive; negative | mutagenic call (Test System: AMES SALMONELLA TYPHIMURIUM, Strain/Indicator: TA100, Metabolic Activation: RAT, LIVER, S-9, AROCLOR 1254 (30%), Method: DESICCATOR): inactive; negative | mutagenic call (Test System: AMES SALMONELLA TYPHIMURIUM, Strain/Indicator: TA100, Metabolic Activation: RAT, LIVER, S-9, AROCLOR 1254 (30%), Method: PREINCUBATION): inactive; negative | mutagenic call [8]: inactive; negative | mutagenic call [9]: inactive; negative | mutagenic call [10]: inactive; negative

C=CCSSCCC
mutagenic call [1]: inactive; negative | mutagenic call [2]: inactive; negative | mutagenic call [3]: inactive; negative | mutagenic call (Test System: AMES SALMONELLA TYPHIMURIUM, Strain/Indicator: TA98, Metabolic Activation: HAMSTER, LIVER, S-9, AROCLOR 1254 (10 OR 30%), Method: PREINCUBATION): inactive; negative | mutagenic call [4]: inactive; negative | mutagenic call (Test System: AMES SALMONELLA TYPHIMURIUM, Strain/Indicator: TA98, Metabolic Activation: RAT, LIVER, S-9, AROCLOR 1254 (10 OR 30%), Method: PREINCUBATION): inactive; negative | mutagenic call (Test System: AMES SALMONELLA TYPHIMURIUM, Strain/Indicator: TA100, Metabolic Activation: HAMSTER, LIVER, S-9, AROCLOR 1254 (10 OR 30%), Method: PREINCUBATION): inactive; negative | mutagenic call [6]: inactive; negative | mutagenic call (Test System: AMES SALMONELLA TYPHIMURIUM, Strain/Indicator: TA100, Metabolic Activation: RAT, LIVER, S-9, AROCLOR 1254 (10 OR 30%), Method: PREINCUBATION): inactive; negative | mutagenic call [8]: inactive; negative | mutagenic call [9]: inactive; negative | mutagenic call [10]: inactive; negative

C=C1N(C)c2ccccc2C1(C)C
mutagenic call (Test System: MOUSE LYMPHOMA, Strain/Indicator: L5178Y (TK+/TK-), Metabolic Activation: NONE, Method: SUSPENSION/PLATE): inactive; negative. reevaluation of results: negative | mutagenic call (Test System: MOUSE LYMPHOMA, Strain/Indicator: L5178Y (TK+/TK-), Metabolic Activation: RAT, LIVER, S-9, AROCLOR 1254, Method: SUSPENSION/PLATE): active; positive. reevaluation of results: positive | mutagenic call (Test System: Mouse lymphoma, Strain/Indicator: L5178Y (tk+/tk-), Metabolic Activation: None, Method: Suspension/plate): inactive; negative | mutagenic call (Test System: Mouse lymphoma, Strain/Indicator: L5178Y (tk+/tk-), Metabolic Activation: Rat, Liver, S-9, Aroclor 1254, Method: Suspension/plate): active; positive

CC(=O)Nc1ccc(/C=N/n2nnc3c([nH]c4ccccc43)c2=O)cc1
mutagenic call [2]: active; positive | mutagenic call (Test System: AMES SALMONELLA TYPHIMURIUM, Strain/Indicator: TA97, Metabolic Activation: RAT, LIVER, S-9, AROCLOR 1254 (10%), Method: PREINCUBATION): active; positive | mutagenic call [4]: active; positive | mutagenic call [5]: active; positive | mutagenic call [6]: active; positive | mutagenic call [7]: active; positive | mutagenic call (Test System: AMES SALMONELLA TYPHIMURIUM, Strain/Indicator: TA102, Metabolic Activation: NONE, Method: PREINCUBATION): inactive; negative | mutagenic call (Test System: AMES SALMONELLA TYPHIMURIUM, Strain/Indicator: TA102, Metabolic Activation: RAT, LIVER, S-9, AROCLOR 1254 (10%), Method: PREINCUBATION): inactive; negative

O=C(O[C@H]1Cc2c(O)cc(O)cc2O[C@H]1c1ccc(O)c(O)c1)c1cc(O)c(O)c(O)c1
mutagenic call (Test System: Ames Salmonella typhimurium, Strain/Indicator: TA102, Metabolic Activation: None, Method: Preincubation): inactive; negative | mutagenic call (Test System: Ames Salmonella typhimurium, Strain/Indicator: TA102, Metabolic Activation: Rat, Liver, S-9, Aroclor 1254 in 0.154 M KCl, Method: Preincubation): inactive; negative
